Measurements taken from patent publication US12281102B2, “Inhibitors of APOL1 and methods of using same” (Vertex Pharmaceuticals Incorporated, priority 2020, dated 2025).
pIC50: −log10 of the molar value. Where two headings read alike, the source gives them in different places.

Target: T1, G1 APOL1 (Homo sapiens, UniProt O14791, I384M/S342G)
T1 construct: expressed in transfected cells
T1 sequence (O14791 28-398 S342G/I384M): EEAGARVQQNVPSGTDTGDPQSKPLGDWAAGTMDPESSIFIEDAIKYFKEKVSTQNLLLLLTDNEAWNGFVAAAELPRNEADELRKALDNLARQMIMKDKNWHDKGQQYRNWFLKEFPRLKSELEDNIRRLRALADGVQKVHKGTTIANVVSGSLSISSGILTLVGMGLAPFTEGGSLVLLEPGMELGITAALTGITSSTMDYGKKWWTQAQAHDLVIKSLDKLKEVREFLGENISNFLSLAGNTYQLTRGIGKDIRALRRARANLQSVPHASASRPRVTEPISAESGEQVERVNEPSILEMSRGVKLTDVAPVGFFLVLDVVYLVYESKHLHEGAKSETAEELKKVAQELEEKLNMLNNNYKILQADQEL
Experiment: Acute APOL1 Thallium Assay with inducible stable clones of HEK 293 cells
Type: cell-based
Conditions: HEK 293 T-Rex inducible stable clone expressing G1 APOL1
Outline: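 APOL1 pore function was measured as thallium influx, detected by a Tl+-sensitive fluorescent dye loaded as AM ester, on a FLIPR Tetra after Tl+ addition. Cells were HEK T-Rex G1 APOL1 clone DC3.25, 26,000 per well, induced with tetracycline at plating in Opti-MEM assay medium.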

[1] = read-out: Thallium Assay (IC50)

| pIC50 [1] | pIC50 (Thallium Assay (IC50)) | SMILES |
| --- | --- | --- |
| 6.00 to 6.60 | – | O=S(=O)(N[C@H]1C[C@H](c2c(-c3ccc(F)cc3)[nH]c3c(F)cc(F)cc32)C1)c1c[nH]cn1 [Compound 150] |
| 6.00 to 6.60 | – | OCC(O)CNCC1CC(c2c(-c3ccc(F)cc3)[nH]c3c(F)cc(F)cc23)C1 (centres unmarked) [Compound 385] |
| < 6.00 | – | O=C1NCCC1CNS(=O)(=O)NC[C@H]1C[C@H](c2c(-c3ccc(F)cc3)[nH]c3c(F)cc(F)cc32)C1 (some centres unmarked) [Compound 345] |
| 6.00 to 6.60 | – | O=C(N[C@H]1C[C@@H](c2c(-c3ccc(F)cc3)[nH]c3c(F)cc(F)cc32)C1)c1cn[nH]c1 [Compound 73] |
| > 6.60 | – | N[C@@H](CO)C(=O)NC[C@H]1C[C@H](c2c(-c3ccc(F)cc3)[nH]c3c(F)cc(F)cc32)C1 [Compound 194] |
| < 6.00 | – | C[C@H](NC(=O)OC(C)(C)C)C(=O)NC[C@H]1C[C@H](c2c(-c3ccc(F)cc3)[nH]c3c(F)cc(F)cc32)C1 [Compound 227] |
| < 6.00 | – | CC(NC(=O)O[C@H]1C[C@H](c2c(-c3ccc(F)cc3)[nH]c3c(F)cc(F)cc32)C1)C(N)=O (mixture of isomers) [Compound 456, [3-[5,7-difluoro-2-(4-fluorophenyl)-1H-indol-3-yl]cyclobutyl]N-(2-amino-1-methyl-2-oxo-ethyl)carbamate] |
| > 6.60 | – | N[C@H](C(=O)NC[C@H]1C[C@H](c2c(-c3ccc(F)cc3)[nH]c3c(F)cc(F)cc32)C1)C1CC1 [Compound 196] |
| < 6.00 | – | O=C(CC1CS(=O)(=O)C1)NC[C@H]1C[C@@H](c2c(-c3ccc(F)cc3)[nH]c3c(F)cc(F)cc32)C1 [Compound 231] |
| < 6.00 | – | O=C(N[C@H]1C[C@H](c2c(-c3ccc(F)cc3)[nH]c3c(F)cc(F)cc32)C1)OCc1ccccc1 [Compound 88] |
| < 6.00 | – | NC(=O)CC(=O)NC1CC(Cc2c(-c3ccc(F)cc3)[nH]c3c(F)cc(F)cc23)C1 (centres unmarked) [Compound 165] |
| < 6.00 | – | CC(C)(C)OC(=O)NC1(C(=O)NC[C@H]2C[C@H](c3c(-c4ccc(F)cc4)[nH]c4c(F)cc(F)cc43)C2)COC1 [Compound 311] |
| < 6.00 | – | CN(C)CC(=O)NC[C@H]1C[C@@H](c2c(-c3ccc(F)cc3)[nH]c3c(F)cc(F)cc32)C1 [Compound 320] |
| < 6.00 | – | Cn1nccc1CC(=O)N[C@H]1C[C@H](c2c(-c3ccc(F)cc3)[nH]c3c(F)cc(F)cc32)C1 [Compound 115] |
| 6.00 to 6.60 | – | OC1CC(NCC2CC(c3c(-c4ccc(F)cc4)[nH]c4c(F)cc(F)cc34)C2)C1 (centres unmarked) [Compound 377] |
| 6.00 to 6.60 | – | O=S(=O)(NCCc1cn[nH]c1)NC[C@H]1C[C@H](c2c(-c3ccc(F)cc3)[nH]c3c(F)cc(F)cc32)C1 [Compound 369] |
| < 6.00 | – | NC(=O)CC(=O)NC[C@H]1C[C@@H](c2c(-c3ccc(F)cc3)[nH]c3c(F)cc(F)cc32)C1 [Compound 243] |
| < 6.00 | – | O=C(NC[C@H]1C[C@H](c2c(-c3ccc(F)cc3)[nH]c3c(F)cc(F)cc32)C1)c1ccn[nH]1 [Compound 292] |
| 6.00 to 6.60 | – | O=C(NC[C@H]1C[C@H](c2c(-c3ccc(F)cc3)[nH]c3c(F)cc(F)cc32)C1)C1(O)COC1 [Compound 221] |
| < 6.00 | – | O=C(CN1CCCC1)N[C@H]1C[C@H](c2c(-c3ccc(F)cc3)[nH]c3c(F)cc(F)cc32)C1 [Compound 112] |

| pIC50 [1] | pIC50 (Thallium Assay (IC50)) | SMILES |
| --- | --- | --- |
| < 6.00 | – | O=S(=O)(NCCCn1ccnc1)NC[C@H]1C[C@H](c2c(-c3ccc(F)cc3)[nH]c3c(F)cc(F)cc32)C1 [Compound 366] |
| < 6.00 | – | CC(C)(C)OC(=O)NCC(=O)N[C@H]1C[C@@H](c2c(-c3ccc(F)cc3)[nH]c3c(F)cc(F)cc32)C1 [Compound 78] |
| < 6.00 | – | CN1CCC(CC(=O)N[C@H]2C[C@H](c3c(-c4ccc(F)cc4)[nH]c4c(F)cc(F)cc43)C2)C1 (some centres unmarked) [Compound 110] |
| < 6.00 | – | O=C(NC[C@H]1C[C@H](c2c(-c3ccc(F)cc3)[nH]c3c(F)cc(F)cc32)C1)[C@@H]1C[C@H](O)CN1 [Compound 254] |
| > 6.60 | – | O=C(NC[C@H]1C[C@H](c2c(-c3ccc(F)cc3)[nH]c3c(F)cc(F)cc32)C1)[C@@H]1C[C@@H](F)CN1 [Compound 205] |
| 6.00 to 6.60 | – | C[C@@H](CO)NS(=O)(=O)NC[C@H]1C[C@H](c2c(-c3ccc(F)cc3)[nH]c3c(F)cc(F)cc32)C1 [Compound 338] |
| > 6.60 | – | N[C@H]1C[C@@H](Cc2c(-c3ccc(F)cc3)[nH]c3c(F)cc(F)cc23)C1 [Compound 158, cis-3-[[5,7-difluoro-2-(4-fluorophenyl)-1H-indol-3-yl]methyl]cyclobutanamine] |
| < 6.00 | – | CNS(=O)(=O)NC[C@H]1C[C@H](c2c(-c3ccc(F)cc3)[nH]c3c(F)cc(F)cc32)C1 [Compound 354] |
| < 6.00 | – | CCS(=O)(=O)NCC(=O)NC[C@H]1C[C@@H](c2c(-c3ccc(F)cc3)[nH]c3c(F)cc(F)cc32)C1 [Compound 263] |
| – | > 6.60 | N[C@H]1C[C@H](c2c(-c3ccc(F)cc3)[nH]c3c(F)cc(F)cc32)C1 [Compound 89, (1r,3r)-3-[5,7-difluoro-2-(4-fluorophenyl)-1H-indol-3-yl]cyclobutanamine] |
| 6.00 to 6.60 | – | O[C@H]1C[C@H](NCC2CC(c3c(-c4ccc(F)cc4)[nH]c4c(F)cc(F)cc34)C2)C1 (some centres unmarked) [Compound 387] |
| < 6.00 | – | CC1(C(=O)N[C@H]2C[C@@H](c3c(-c4ccc(F)cc4)[nH]c4c(F)cc(F)cc43)C2)CCC(=O)NC1 (mixture of isomers) [Compound 66] |
| 6.00 to 6.60 | – | CC(CO)NCC1CC(c2c(-c3ccc(F)cc3)[nH]c3c(F)cc(F)cc23)C1 (mixture of isomers) [Compound 378] |
| < 6.00 | – | O=C(NC[C@H]1C[C@@H](c2c(-c3ccc(F)cc3)[nH]c3c(F)cc(F)cc32)C1)C(O)C1CC1 (some centres unmarked) [Compound 247] |
| < 6.00 | – | O=C(NC[C@H]1C[C@H](c2c(-c3ccc(F)cc3)[nH]c3c(F)cc(F)cc32)C1)c1ccn[nH]c1=O [Compound 312] |
| < 6.00 | – | O=C(Cc1cnccn1)NC[C@H]1C[C@H](c2c(-c3ccc(F)cc3)[nH]c3c(F)cc(F)cc32)C1 [Compound 238] |
| < 6.00 | – | CC(C(=O)N[C@H]1C[C@@H](c2c(-c3ccc(F)cc3)[nH]c3c(F)cc(F)cc32)C1)n1ccnc1 (mixture of isomers) [Compound 40] |
| < 6.00 | – | Fc1ccc(-c2[nH]c3c(F)cc(F)cc3c2C2CC(CN[C@@H]3CCOC3)C2)cc1 (some centres unmarked) [Compound 391] |
| < 6.00 | – | CC(=O)N1CC[C@H](C(=O)NC[C@H]2C[C@H](c3c(-c4ccc(F)cc4)[nH]c4c(F)cc(F)cc43)C2)C1 [Compound 274] |
| > 6.60 | – | CC(=O)NC[C@H]1C[C@H](c2c(-c3ccc(F)cc3)[nH]c3c(F)cc(F)cc32)C1 [Compound 195] |

| pIC50 [1] | pIC50 (Thallium Assay (IC50)) | SMILES |
| --- | --- | --- |
| < 6.00 | – | O=C(CC1CCOCC1)NC[C@H]1C[C@@H](c2c(-c3ccc(F)cc3)[nH]c3c(F)cc(F)cc32)C1 [Compound 325] |
| < 6.00 | – | O=C(NC[C@H]1C[C@H](c2c(-c3ccc(F)cc3)[nH]c3c(F)cc(F)cc32)C1)[C@H]1NCC[C@H]1O [Compound 229] |
| < 6.00 | – | CN1CC(NS(=O)(=O)NC[C@H]2C[C@H](c3c(-c4ccc(F)cc4)[nH]c4c(F)cc(F)cc43)C2)CC1=O (some centres unmarked) [Compound 336] |
| < 6.00 | – | O=C(CCN1CCCC1)N[C@H]1C[C@H](c2c(-c3ccc(F)cc3)[nH]c3c(F)cc(F)cc32)C1 [Compound 109] |
| < 6.00 | – | NC(=O)C1(NS(=O)(=O)NC[C@H]2C[C@H](c3c(-c4ccc(F)cc4)[nH]c4c(F)cc(F)cc43)C2)CC1 [Compound 349] |
| 6.00 to 6.60 | – | CNCCC(=O)N[C@H]1C[C@@H](c2c(-c3ccc(F)cc3)[nH]c3c(F)cc(F)cc32)C1 [Compound 75] |
| < 6.00 | – | Nc1nonc1C(=O)NC[C@H]1C[C@H](c2c(-c3ccc(F)cc3)[nH]c3c(F)cc(F)cc32)C1 [Compound 329] |
| < 6.00 | – | CC(C)(C)OC(=O)N[C@@H](C(=O)NC[C@H]1C[C@H](c2c(-c3ccc(F)cc3)[nH]c3c(F)cc(F)cc32)C1)C1CC1 [Compound 277] |
| < 6.00 | – | CC(=O)NCCNC1CC(c2c(-c3ccc(F)cc3)[nH]c3c(F)cc(F)cc23)C1 (centres unmarked) [Compound 23] |
| < 6.00 | – | C[C@@H](O)CNS(=O)(=O)NC[C@H]1C[C@H](c2c(-c3ccc(F)cc3)[nH]c3c(F)cc(F)cc32)C1 [Compound 351] |
| 6.00 to 6.60 | – | O=C(NC[C@H]1C[C@H](c2c(-c3ccc(F)cc3)[nH]c3c(F)cc(F)cc32)C1)[C@@H]1C[C@@H](O)CN1 [Compound 225] |
| < 6.00 | – | O=S(=O)(NC[C@H]1C[C@H](c2c(-c3ccc(F)cc3)[nH]c3c(F)cc(F)cc32)C1)c1cn[nH]c1 [Compound 416] |
| < 6.00 | – | O=C(CCN1CCCCC1)NC[C@H]1C[C@@H](c2c(-c3ccc(F)cc3)[nH]c3c(F)cc(F)cc32)C1 [Compound 293] |
| < 6.00 | – | Cc1cc[nH]c1C(=O)NC1CC(Cc2c(-c3ccc(F)cc3)[nH]c3c(F)cc(F)cc23)C1 (centres unmarked) [Compound 171] |
| < 6.00 | – | O=C(NC[C@H]1C[C@@H](c2c(-c3ccc(F)cc3)[nH]c3c(F)cc(F)cc32)C1)c1nc[nH]n1 [Compound 302] |
| < 6.00 | – | CN(C)C(=O)CCC(=O)N[C@H]1C[C@@H](c2c(-c3ccc(F)cc3)[nH]c3c(F)cc(F)cc32)C1 [Compound 60] |
| < 6.00 | – | CC1(C)CCC(C(=O)N[C@H]2C[C@H](c3c(-c4ccc(F)cc4)[nH]c4c(F)cc(F)cc43)C2)N1 (some centres unmarked) [Compound 127] |
| < 6.00 | – | O=C1CC(CC(=O)N[C@H]2C[C@@H](c3c(-c4ccc(F)cc4)[nH]c4c(F)cc(F)cc43)C2)CC(=O)N1 [Compound 72] |

| SMILES | pIC50 [1] | pIC50 (Thallium Assay (IC50)) |
| --- | --- | --- |
| NC1CC(c2c(-c3ccc(OC(F)F)cc3)[nH]c3c(F)cc(F)cc23)C1 (centres unmarked) [Compound 9] | > 6.60 | – |
